Assays:
[1] = system: HCC1806 Cells; assay: HCC1806 Cell Viability Assay (CellTiter-Glo); format: cell-based; settings: Homo sapiens, 144 h, 6 days incubation, read-out: HCC1806 CTG IC50
Description: HCC1806 Cells (ATCC, Cat #CRL-2335) were seeded at a density of 500 cells/well in a 96-well clear bottom plate (Greiner, Cat #655098) in 100 μL of complete media (RPMI1640+10% FBS). One hundred microliter of complete media was added into the blank wells (column 1) for low control. Cells were allowed to adhere to the plate overnight in the incubator at 37° C., 5% CO2. On the following day, 0.5 μL of serially-diluted compounds were added to the cells (columns 2-10) and incubated for 6 days at 37° C., 5% CO2 (final 0.5% DMSO concentration); 0.5 μL of DMSO solution was added into the wells (column 11) for high control. Cell viability was detected according to the CellTiter-Glo Luminescent Cell Viability Assay Kit (Promega, Cat #G7573). Luminescence was recorded on the Tecan Spark plate reader. Inhibition rate (IR) of the tested compounds was determined by the following formula: IR (%)=(1−(RLUcompound−RLUlow control)/(RLUhigh control−RLUlow control))×100%. The IC50 value was calculated using the non-linear regression equation: Y=Bottom+(Top−Bottom)/(1+10^((Log IC50−X)×HillSlope)), where X is Log of compound concentration, Y is percent inhibition (IR (%)), Top and Bottom are plateaus in same units as Y.

[2] = system: OVCAR3 Cells; assay: OVCAR3 Cell Viability Assay (CellTiter-Glo); format: cell-based; settings: Homo sapiens, OVCAR-3, 144 h, 6 days incubation, read-out: OVCAR3 CTG IC50
Description: OVCAR3 Cells (ATCC, Cat #HTB-161) were seeded at a density of 2000 cells/well in a 96-well clear bottom plate (Greiner, Cat #655098) in 100 μL of complete media (RPMI1640+20% FBS+0.01 mg/mL human insulin). One hundred microliter of complete media was added into the blank well (column 1) for low control. Cells were allowed to adhere to the plate overnight in the incubator at 37° C., 5% CO2. On the following day, 0.5 μL of serially-diluted compounds were added to the cells (columns 2-10) and incubated for 6 days at 37 C, 5% CO2 (final 0.5% DMSO concentration); 0.5 μL of DMSO solution was added into the wells (column 11) for high control. Cell viability was detected according to the CellTiter-Glo Luminescent Cell Viability Assay Kit (Promega, Cat #G7573). Luminescence was recorded on the Tecan Spark plate reader. Inhibition rate (IR) of the tested compounds was determined by the following formula: IR (%)=(1−(RLUcompound−RLUlow control)/(RLUhigh control−RLUlow control))×100%. The IC50 value was calculated using the non-linear regression equation: Y=Bottom+(Top−Bottom)/(1+10^((Log IC50−X)×HillSlope)), where X is Log of compound concentration, Y is percent inhibition (IR (%)), Top and Bottom are plateaus in same units as Y.

[3] = Mouse PK Assay; format: in vivo; settings: plasma, male BALB/c mouse; for MRT: IV; for half-life: single oral dose 5 mg/kg, read-out: PO T1/2 (converted)
[4] = target: T1, P450 2C9 (Homo sapiens, UniProt P11712); assay: In Vitro Cytochrome P450 Inhibition Study; format: in vitro ADME; settings: human liver microsomes (HLM), test compound 0.137 μM to 10 μM, 10 min at 37 °C
T1 construct: incubation with known industry-accepted CYP450 substrates, test articles and microsomes (HLM); from tissue; host or cells: liver microsomes (HLM)
T1 sequence (P11712 whole entry): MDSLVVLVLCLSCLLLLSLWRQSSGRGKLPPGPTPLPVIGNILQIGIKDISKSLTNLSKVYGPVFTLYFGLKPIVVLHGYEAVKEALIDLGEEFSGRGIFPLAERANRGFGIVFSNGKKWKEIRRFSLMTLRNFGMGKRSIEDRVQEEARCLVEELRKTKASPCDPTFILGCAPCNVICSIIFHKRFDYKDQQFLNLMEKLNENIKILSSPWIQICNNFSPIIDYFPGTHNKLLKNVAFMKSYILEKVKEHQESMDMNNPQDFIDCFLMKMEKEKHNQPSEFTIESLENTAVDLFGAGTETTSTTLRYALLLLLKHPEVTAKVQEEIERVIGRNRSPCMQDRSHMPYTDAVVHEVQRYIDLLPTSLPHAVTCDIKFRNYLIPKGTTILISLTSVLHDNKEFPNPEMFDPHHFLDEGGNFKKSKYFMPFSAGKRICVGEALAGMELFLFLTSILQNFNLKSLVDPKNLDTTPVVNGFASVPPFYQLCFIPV
Description: CYP inhibition was evaluated by monitoring corresponding metabolite decrease after incubation with known industry-accepted CYP450 substrates, test articles and microsomes (HLM).
Eight reaction wells with 30 μL of a solution containing 100 mM potassium phosphate, pH 7.4 and 1:3 serial dilutions of the test compound were prepared along with eight wells of 1:3 serial dilutions of Sulfaphenazole (a positive control inhibitor). The assay plates were pre-warmed after 15 μL of probe substrate was added into appropriate wells. Then the reactions were initiated by adding 15 μL of a pre-warmed 8 mM NADPH solution resulting in a final NADPH concentration of 2 mM. The concentrations of test compound ranged from 0.137 μM to 10 μM. A zero time-point control reaction was prepared by adding 135 μL acetonitrile (ACN) containing tolbutamide (200 ng/mL) as internal standard (IS) to 30 μL. of the reaction solution to inactivate the enzymes before adding the probe substrate. A control reaction with no inhibitor was also prepared. After a suitable incubation at 37° C., 10 min, the reactions were terminated by the addition of 135 μL ACN containing IS. The reactions were prepared and analyzed for the metabolite forms of the probe substrate using LC-MS/MS.

[5] = Human Plasma Protein Binding Assay (dialysis); format: in vitro ADME; settings: 1 μM compound, dialysis 6 hr at 37 °C
Description: The plasma protein binding of compounds in human plasma was determined using a dialysis method. The dialysis membrane strips were prepared by soaking them in ultra-pure water for about 1 hr at room temperature, followed by separation and soaking in ethanol:water (20:80 v:v) for about 20 min, and a final rinse with ultra-pure water. Prior to use, the membranes were rinsed and soaked for another 20 min in ultra-pure water.
The blank plasma samples were thawed, centrifuged and verified its pH values. Only the plasma with pH between 7.0-8.0 was used in the experiment. The final concentration of compound in the spiked plasma is 1 μM, with final DMSO<=1%. All samples were prepared in triplicates. The time zero (T0) samples was used for determining the recovery of the compound of interest after dialysis. It was prepared in the same way as other dialysis samples except it was stored at 2-8° C. before LC-MS/MS analysis.
The other spiked plasma samples were loaded onto the dialysis device and incubated at and 37±1° C. with 5% CO2 for 6 hr. At the end of the dialysis, aliquots of samples from the plasma and buffer sides of the dialysis device were taken and processed for LC-MS/MS analysis.
The % Unbound, % Bound, and % Recovery of the compounds were calculated from the peak area ratios of the analyte and internal standard in the plasma and buffer samples as shown in the following equations:
[formula] [formula] [formula] • where [F] is the peak area ratio of analyte/internal standard on the buffer (receiver) side of the membrane; [T] is the peak area ratio of analyte/internal standard on the plasma (donor) side of the membrane; [T0] is the peak area ratio of analyte/internal standard in the plasma sample at time zero.

[6] = target: T2, PXR (Homo sapiens, UniProt O75469); assay: In Vitro PXR Activation Study (DPX2 cells); format: cell-based; settings: concentration 30 uM, 48 h treatment
T2 construct: expressed in transfected cells; host or cells: DPX2 cells
T2 sequence (O75469 1-434): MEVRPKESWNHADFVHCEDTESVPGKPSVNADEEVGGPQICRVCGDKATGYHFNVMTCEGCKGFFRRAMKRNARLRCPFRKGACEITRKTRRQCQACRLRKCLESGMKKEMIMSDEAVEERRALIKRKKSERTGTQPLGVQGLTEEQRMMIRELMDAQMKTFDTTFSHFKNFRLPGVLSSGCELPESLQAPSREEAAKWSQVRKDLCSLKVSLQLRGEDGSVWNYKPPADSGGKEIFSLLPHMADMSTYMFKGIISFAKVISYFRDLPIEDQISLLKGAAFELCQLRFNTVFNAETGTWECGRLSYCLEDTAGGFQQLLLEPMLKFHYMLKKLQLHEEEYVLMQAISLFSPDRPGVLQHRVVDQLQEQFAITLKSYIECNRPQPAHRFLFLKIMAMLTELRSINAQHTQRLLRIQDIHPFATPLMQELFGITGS
Description: Prepared the culture medium for DPX2 cells using DPX2 culturing medium supplemented with 10% FBS. Cultivated DPX2 cells in T-75 flasks in a cell culture incubator set at 37 C, 5% CO2, 95% relative humidity. Allowed cells to reach 80-90% confluence before detaching and splitting. Rinsed cultivated cells in T-75 flasks with 5 mL PBS. Aspirate off, add 1.5 mL trypsin, and incubated at 37° C. for approximately 5 minutes or until the cells detach and float. Inactivated trypsin by adding excess serum containing medium. Removed cell suspension to a conical tube and pellet cells by centrifugation at 150×g for 5 minutes. Resuspended cells in seeding medium at a density of 3.2×10^5 cells/mL. Transferred 25 μL to each well of 384-well cell culture plate. Placed plate(s) in incubator and incubate at 37° C. for 24 hours.
Prepared stock solutions of test compounds and inducers in DMSO. Final concentration of DMSO in the treatment group should be 0.1%. Removed the plates from the incubator and directly add 25 μL of the negative control, inducers, or test article solutions. Returned plates to the incubator for 48 hours. […] After 48 h of treatment, the cultures were ready for the determination of quantitation of PXR activation.
The fold-activation mRNA level was determined by the equation: […]

[7] = Human Microsomal Clearance Assay; format: in vitro ADME; settings: pH 7.4, human liver microsomes 0.5 mg/mL, 1 μM compound, 2 mM NADPH; for CLint scaled at 1 μM: in vitro intrinsic clearance
Description: This study aimed to assess the metabolic stability of a compound in human liver microsomes using a microsomal clearance assay.
A mixture containing 100 mM potassium phosphate, pH 7.4, 0.5 mg/mL liver microsomes, 2 mM NADPH, and 1 μM compound were prepared and added to 96-well plate. The plates were then incubated at 37° C. for different time points (0, 5, 15, 30, 45 minutes) and the reaction was stopped with acetonitrile solution containing an internal standard. The samples were then analyzed by LC/MS/MS to determine how much of the compound remained at each time point. The elimination rate constant and half-life were calculated from the data as follows: Elimination rate constant (k)=−slope; Half-life (T1/2)=0.693/k.
The in vitro intrinsic clearance, Clint, was calculated from the T1/2 as follows: Clint=(0.693/T1/2)×(1/(microsomal protein concentration (0.5 mg/mL)))×Physiological Scaling Factor.

SMILES | IC50 [2] [nM] | IC50 [4] [nM] | fraction unbound at 6 hr, 1 μM [5] | further results
O=C1c2ccc(NS(=O)(=O)CCO)cc2C2(CCC3(CC3)CC2)CN1c1ccnc(N2CCC(F)(F)CC2)n1 [Compound 1] | < 200 |  |  | IC50 [1]: < 200 nM; MRT [3]: 7.5 h; half-life [3]: 4.8 h
CC1(C)CCC2(CC1)CN(c1ccc(C#N)c(N3CCC(F)(F)CC3)n1)C(=O)c1ccc(NS(=O)(=O)CCO)cc12 [Compound 90] | < 200 | > 10000 |  | 
CCS(=O)(=O)Nc1ccc2c(c1)C1(CCC3(CC3)CC1)CN(c1ccc(C#N)c(S(=O)(=O)NC(C)(C)C)c1)C2=O [Compound 120] | < 200 |  | 0.0122 | 
N#Cc1ccc(N2CC3(CCC4(CC4)CC3)c3cc(NS(=O)(=O)CCO)ccc3C2=O)nc1N1CCC(F)(F)CC1 [Compound 27] | < 200 |  |  | IC50 [1]: < 200 nM; Induction Fold [6]: 1.8x; MRT [3]: 6.2 h; half-life [3]: 3.7 h
CC1(C)CCC2(CC1)CN(c1ccc(C#N)c(NC3CC(F)(F)C3)n1)C(=O)c1ccc(NS(=O)(=O)CCO)cc12 [Compound 95] | < 200 |  |  | half-life at 1 μM [7]: 1.98 h; CLint scaled at 1 μM [7]: 14.6 mL/min/kg
O=C1c2ccc(NS(=O)(=O)CCO)cc2C2(CCC3(CC3)CC2)CN1c1ccnc(NC2CC(F)(F)C2)n1 [Compound 21] | < 200 |  | 0.002 | 
N#Cc1ccc(N2CC3(CCC4(CC4)CC3)c3cc(NS(=O)(=O)CCO)ccc3C2=O)nc1NC1CC(F)(F)C1 [Compound 56] | < 200 |  |  | half-life at 1 μM [7]: 2.37 h; CLint scaled at 1 μM [7]: < 12.4 mL/min/kg
N#Cc1ccc(N2CC3(CCC4(CC4)CC3)c3cc(NS(=O)(=O)CCO)ccc3C2=O)nc1NC1CCC(F)(F)C1 (single isomer, unassigned) [Compound 110] |  |  |  | half-life at 1 μM [7]: 2.52 h; CLint scaled at 1 μM [7]: < 12.4 mL/min/kg
N#Cc1ccc(N2CC3(CCC4(CC4)CC3)c3cc(NS(=O)(=O)CCO)ncc3C2=O)nc1N1CCC(F)(F)CC1 [Compound 80] | < 200 | > 10000 |  | 
COCCOc1ccc(N2CC3(CCC4(CC4)CC3)c3cc(NS(=O)(=O)CCO)ccc3C2=O)nc1N1CCC(F)(F)CC1 [Compound 136] | < 200 | > 10000 |  | 
O=C1c2ccc(NS(=O)(=O)CCO)cc2C2(CCC3(CC3)CC2)CN1c1ccnc(NC2CCC(F)(F)C2)n1 (single isomer, unassigned) [Compound 71] | < 200 |  | 0.0014 | 
N#Cc1ccc(N2CC3(CCC4(CCC4)CC3)c3cc(NS(=O)(=O)CCO)ccc3C2=O)nc1N1CCC(F)(F)CC1 [Compound 116] | < 200 | 6700 |  | MRT [3]: 6.9 h; half-life [3]: 4.6 h
COc1ccc(N2CC3(CCC4(CC4)CC3)c3cc(NS(=O)(=O)CCO)ccc3C2=O)nc1N1CCC(F)(F)CC1 [Compound 133] | < 200 | > 10000 | 0.001 | Induction Fold [6]: 1.7x
